Experimental data published in US5843481A, “Treatment of proliferative disorders, metastasaes, and drug resistant tumors with vanadate compounds and derivatives or analogues thereof” (priority 1994, dated 1998).
“Also recorded” adds a separate entry of the source.

Assays:
jun = assay: Northern blot analysis of jun mRNA expression in chondrocytes; type: cell-based, bovine; conditions: for expression of c-jun: stimulation, 1 hour, bovine chondrocytes, AA 3 μM; for jun expression in response to factors such as IL 1 or arachidonic acid: summary statement
Excerpt: (§1) The cytokine interleukin 1 (IL 1) has been used to identify the intermediate second messengers which regulate the expression of fos and jun.
(§2) Although IL 1 stimulated superoxide production, it was not known whether IL 1 induced fos and jun expression was dependent on the production of superoxides. In order to elucidate this possibility, the effect of DPI on fos and jun mRNA levels induced by IL 1 was investigated. RNA from chondrocytes treated with IL 1 in the presence and absence of DPI were analyzed by Northern blot analysis using either fos or collagenase cDNA probes. […] Similar data has been obtained for IL 1 induced jun expression. Furthermore, inhibition of fos and jun expression by DPI was sufficient to suppress IL 1 induced and constitutive collagenase expression.
(§3) Bovine articular chondrocytes were isolated and plated as previously described (Kandel R. A. et al. Biochim. Biophys. Acta. 1053, 130-134, 1990). In order to determine the effect of orthovanadate on IL 1 and PMA (phorbol ester) induced responses, chondrocytes were incubated with orthovanadate (100 μM) for 2 hours before stimulation with IL 1 (10 ng/ml) or PMA ([…]). collagenase production was determined by incubating chondrocytes for 24 hours with IL 1 or PMA and the cell conditioned medium was assayed for collagenase activity using an ELISA procedure as described previously (Kandel et al. supra) PLA2 activity was measured by incorporating ^3 H-arachidonic acid (^3 H-AA) into the cells and then incubating the cells with medium containing 1 mg/ml BSA, either alone or in the presence of IL 1 or PMA, for 10 min. as previously described (Conquer, J. A. […], Biochim. Biophys. Acta. 1134, 1-6). The amount of ^3 H-AA liberated into the supernatant was determined. To measure PGE2 production, chondrocytes were incubated for 6 hours in Ham's F12 medium, either alone or with IL 1 or PMA. The supernatant was analyzed by RIA using an antibody specific for PGE2 (Dr. S. A. Jones, Mount Sinai Hospital, Toronto, Can.). In order to examine the expression of c-fos and c-jun, chondrocytes were incubated for 1 hour in the presence of IL-1, PMA or AA (3 μM). Chondrocytes were washed in PBS and the total RNA extracted as previously described (Cruz. et al, 1991, Biochem. J. 277, 327-330). RNA samples were run on formaldehyde agarose gels and transferred to nylon membrane for northern analysis using cDNA probes for c-fos and c-jun.

fos = assay: Northern blot analysis of fos mRNA expression in chondrocytes; type: cell-based, bovine; conditions: for expression of c-fos: stimulation, 1 hour, bovine chondrocytes, AA 3 μM; for fos expression in response to factors such as IL 1 or arachidonic acid: summary statement
Method: as §1
In order to elucidate this possibility, the effect of DPI on fos and jun mRNA levels induced by IL 1 was investigated. RNA from chondrocytes treated with IL 1 in the presence and absence of DPI were analyzed by Northern blot analysis using either fos or collagenase cDNA probes.
Since superoxides are rapidly converted to hydrogen peroxide in the cell by superoxide dismutase, whether hydrogen peroxide could mimic the effect of IL 1 in the induction of fos expression was investigated. RNA was extracted from chondrocytes (Kandel et al. supra) treated with H2 O2 for 30, 60 and 90 minutes and examined by Northern blot analysis using a fos cDNA probe.
as §3
Cells were also incubated as described above with 20 mM N-acetylcyateine for 20 min. and then incubated with IL 1 for an additional 1 or 12 hours. The RNA was extracted and examined by Northern blot analysis using cDNA probes for c-fos and collagenase.

cells = assay: Combined effect of H2O2 and orthovanadate on cell toxicity; type: cell-based; conditions: 1 mM H2O2, 24 hours; FIG. 9
Method: If the orthovanadate induced formation of hydroxyl radicals is responsible for cell toxicity, then adding exogenous H2 O2 should enhance the effects of orthovanadate. Accordingly, cells were incubated in media alone or containing 1 mM H2 O2 or 10 μM orthovanadate or both for 24 hours. The cells were harvested and cell viability determined.

superoxides and H2O2 = assay: Levels of superoxides and H2O2 in cells (conclusion of Example 1); type: cell-based, bovine; conditions: conclusion from results
Method: as §3, with “Chondrocytes were washed in PBS and the total RNA extracted as previously described (Cruz. et al, 1991, Biochem. J. 277, 327-330). RNA samples were run on formaldehyde agarose gels and transferred to nylon membrane for northern analysis using cDNA probes for c-fos and c-jun.” left out

MDAY-D2 [1] = assay: MDAY-D2 tumor growth in mice, combination therapy, Example 7; type: in vivo
Method: Twenty mice were injected subcutaneously with 2×10^5 cells on Day 1. At day 4, the mice were divided into four groups of five mice. Group one (control) received subcutaneous injections of 50 μl of water. Group two received daily intraperitoneal injections of 50 μl of 250 mM N-acetylcysteine. Group three received daily subcutaneous injections of 50 μl of 10 mg/ml of orthovanadate. Group four received daily intraperitoneal injections of 50 μl of […] N-acetylcysteine and 20 minutes later received 50 μl of subcutaneous injection of 50 μl of 10 mg/ml of orthovanadate. On day 10 the treatment was stopped. The animals were sacrificed on Day 13 and analyzed for tumor growth.

collagenase [2] = assay: Northern blot analysis of collagenase mRNA expression in chondrocytes; type: cell-based, bovine
Excerpt: as §1, §2
Cells were also incubated as described above with 20 mM N-acetylcyateine for 20 min. and then incubated with IL 1 for an additional 1 or 12 hours. The RNA was extracted and examined by Northern blot analysis using cDNA probes for c-fos and collagenase. N-acetylcysteine which is converted to GSH intracellularly was also found to reduce the levels of fos and collagenase expression in response to IL 1 (FIG. 5). Presumably the higher intracellular levels of GSH reduced H2 O2 and superoxide levels and suppressed the induction of fos and collagenase expression.

PGE2 = PGE2 production by chondrocytes (RIA); type: cell-based, bovine; conditions: stimulation, 6 hours, monolayer culture
Method: as §3, with “Chondrocytes were washed in PBS and the total RNA extracted as previously described (Cruz. et al, 1991, Biochem. J. 277, 327-330). RNA samples were run on formaldehyde agarose gels and transferred to nylon membrane for northern analysis using cDNA probes for c-fos and c-jun.” left out

PLA2 = assay: 3H-arachidonic acid release by chondrocytes (PLA2 activity); type: cell-based, bovine; conditions: stimulation, IL 1 10 ng/ml or PMA 100 mg/ml, 10 min
Method: as §3, with “Chondrocytes were washed in PBS and the total RNA extracted as previously described (Cruz. et al, 1991, Biochem. J. 277, 327-330). RNA samples were run on formaldehyde agarose gels and transferred to nylon membrane for northern analysis using cDNA probes for c-fos and c-jun.” left out

collagenase [3] = assay: Collagenase production by chondrocytes (ELISA of conditioned medium); type: cell-based, bovine; conditions: stimulation, 24 hours, monolayer culture
Method: as §3, with “Chondrocytes were washed in PBS and the total RNA extracted as previously described (Cruz. et al, 1991, Biochem. J. 277, 327-330). RNA samples were run on formaldehyde agarose gels and transferred to nylon membrane for northern analysis using cDNA probes for c-fos and c-jun.” left out

[4] = tested on: KB8, KB8-5 and KB85-11 cells; conditions: background statement; cited from earlier work
[5] = tested on: Chondrocytes (reactive oxygen intermediates; NADPH oxidase); assay: FACS analysis of reactive oxygen intermediates/superoxide production in chondrocytes (dihydroxyrhodamine); type: cell-based, bovine; conditions: inhibition, FIG. 1
Method: Chondrocytes (i.e. bovine chondrocytes plated as described in Kandel R. A. et al. Biochim. Biophys. Acta. 1053, 130-134, 1990) were incubated with dihydroxyrhodamine for 5 min (DHR) or for 4 hours in the absence (-IL 1 ) or presence of IL 1 (+IL 1), or in the presence of both IL 1 and the NADPH inhibitor, diphenyl iodonium, (+IL 1, +DPI).

carcinogenesis = conditions: reported by G. Shklar et al.; cited from earlier work
MDAY-D2 [6] = assay: MDAY-D2 tumor growth in mice, three vanadyl compounds, Example 6B; type: in vivo; conditions: for effect on tumor growth, in words: 10 mg/ml s.c. daily; for animals that died: 10 mg/ml, 50 μl s.c. daily for 16 days, groups of five mice
Excerpt: (§4) In order to examine the ability of vanadyl compounds to reduce tumor formation, growth and metastases, a specific animal model which allows investigation of all of these processes in the same animal was chosen. This model involves the injection of a metastatic haematopoietic cell line, MDAY-D2, into mice subcutaneously. These cells form a tumor at the site of injection and its size can be easily determined. In addition, these cells metastasize to the liver and metastases can be detected histologically after day 17 to 19. This model provides a very sensitive and reproducible approach to investigate the effect of vanadyl compounds on tumor growth and metastases.
In a separate experiment using the same animal model, the effect of orthovanadate, vanadyl sulphate and vanadyl hydroperoxide administration on tumor growth in vivo was examined. On Day 1, 20 mice were injected with 2×10^5 MDAY-D2 cell subcutaneously. The mice were divided into four groups of five mice. At day 5, the animals were injected subcutaneously with 50 μl of water alone or containing 10 mg/ml of orthovanadate, 10 mg/ml of vanadyl sulphate, or 10 mg/ml of vanadyl hydroperoxide. This treatment was continued daily for 16 days. At day 21, the mice were sacrificed and the tumors dissected and weighed.

mammary carcinogenesis = conditions: dietary; cited from earlier work
MDAY-D2 [7] = assay: Liver metastases of MDAY-D2 cells in mice (histology), Example 8; type: in vivo
Excerpt: as §4
Livers were removed from animals treated as described above and prepared for histological examination. FIG. 16 compares liver sections from untreated (C), orthovanadate (VO)(500 μg/day) and vanadyl sulphate (VS)(500 μg/day) treated animals. Nodules are identified with an arrow.

MDAY-D2 cells = assay: Viability of MDAY-D2 cells with different vanadyl compounds; type: cell-based, mouse; conditions: 0-50 μM, 48 hours; FIG. 8
Method: Three different forms of vanadyl compounds were examined for their effect on viability of cancer cell lines. MDAY-D2 cells were incubated in media containing 0-50 μM orthovanadate, vanadyl sulphate, or vanadyl hydroperoxide for 48 hours. The cells were harvested and the number of viable cells determined. […] Although there were slight differences in sensitivity, the overall cell death was similar.

[8] = 20 mM N-acetylcysteine for 20 min, FIG. 5

CCCCC/C=C\C/C=C\C/C=C\C/C=C\CCCC(=O)O [AA, arachidonic acid]
expression of c-jun (jun): stimulated
expression of c-fos (fos): stimulated

OO [H2 O2, hydrogen peroxide]
cell toxicity of H2O2 alone (cells): small effect
stimulation of fos expression (fos; H2O2 for 30, 60 and 90 minutes, FIG. 3): stimulates

CC(=O)N[C@@H](CS)C(=O)O [N-acetylcysteine]
levels of superoxides and H2O2 in cells (superoxides and H2O2): indirectly reduce
effect on slight toxic effects observed with orthovanadate alone (MDAY-D2 [1]; N-acetylcysteine co-administered): appeared to reduce the slight toxic effects
tumor growth inhibition in vivo, in words (MDAY-D2 [1]; combination therapy): capable of reducing tumor growth to some extent
jun expression in response to factors such as IL 1 or arachidonic acid (jun): completely inhibit
levels of collagenase expression in response to IL 1 (collagenase [2]; [8]): reduce
levels of fos expression in response to IL 1 (fos; [8]): reduce
fos expression in response to factors such as IL 1 or arachidonic acid (fos): completely inhibit

CCCCCCCCCCCCCC(=O)OC1C(C)C2(O)C(C=C(CO)CC3(O)C(=O)C(C)=CC32)C2C(C)(C)C12OC(C)=O (centres unmarked) [PMA, reference compound]
production of PGE2 (PGE2): induced
release of 3H-AA (PLA2): induced
expression of c-jun (jun): stimulated
production of collagenase (collagenase [3]): induced
expression of c-fos (fos): stimulated

COc1cc2c(c(OC)c1OC)-c1ccc(OC)c(=O)cc1[C@@H](NC(C)=O)CC2 [colchicine]
killing of drug resistant cell lines by conventional chemotherapeutic agents [4]: not killed

c1ccc([I+]c2ccccc2)cc1 [diphenyl iodonium (DPI), diphenyl iodonium]
jun expression in response to factors such as IL 1 or arachidonic acid (jun): completely inhibit
IL 1 induced and constitutive collagenase expression (collagenase [2]; Northern blot, FIG. 2): suppress
constitutive and IL 1 induced reactive oxygen intermediates [5]: completely inhibits
IL 1 induction of fos (fos; Northern blot, FIG. 2): suppressed
fos expression in response to factors such as IL 1 or arachidonic acid (fos): completely inhibit

COc1cccc2c1C(=O)c1c(O)c3c(c(O)c1C2=O)C[C@@](O)(C(=O)CO)C[C@@H]3O[C@H]1C[C@H](N)[C@H](O)[C@H](C)O1 [doxorubicin]
killing of drug resistant cell lines by conventional chemotherapeutic agents [4]: not killed

N[C@@H](CCC(=O)N[C@@H](CS)C(=O)NCC(=O)O)C(=O)O [glutathione]
anticancer activity (carcinogenesis): reported to have anticancer activity

O=S(=O)([O-])[O-].[O]=[V+2] [vanadyl sulphate]
effect on tumor growth, in words (MDAY-D2 [6]): reduced tumors size in all of the animals; also recorded: less effective
animals that died (MDAY-D2 [6]): One animal died
inhibition of chemically induced mammary carcinogenesis (mammary carcinogenesis): inhibit
levels of metastases in liver (MDAY-D2 [7]; 500 μg/day, FIG. 16): did not have detectable levels of metastases
effectiveness at preventing metastases (MDAY-D2 [7]; preliminary results, liver histology): effective at preventing metastases
effectiveness in killing MDAY-D2 cells (MDAY-D2 cells): equally effective

CC[C@]1(O)C[C@@H]2CN(CCc3c([nH]c4ccccc34)[C@@](C(=O)OC)(c3cc4c(cc3OC)N(C)[C@H]3[C@@](O)(C(=O)OC)[C@H](OC(C)=O)[C@]5(CC)C=CCN6CC[C@]43[C@@H]65)C2)C1 [vinblastine]
killing of drug resistant cell lines by conventional chemotherapeutic agents [4]: not killed

O=C1O[C@H]([C@@H](O)CO)C(O)=C1O [vitamin C, ascorbic acid]
anticancer activity (carcinogenesis): reported to have anticancer activity

Cc1c(C)c2c(c(C)c1O)CCC(C)(CCCC(C)CCCC(C)CCCC(C)C)O2 (stereo not drawn) [α-tocopherol]
anticancer activity (carcinogenesis): reported to have anticancer activity

CC1=C(/C=C/C(C)=C/C=C/C(C)=C/C=C/C=C(C)/C=C/C=C(C)/C=C/C2=C(C)CCCC2(C)C)C(C)(C)CCC1 [β-carotene]
anticancer activity (carcinogenesis): reported to have anticancer activity

vanadyl hydroperoxide
effect on tumor growth, in words (MDAY-D2 [6]): too toxic to evaluate its efficacy
animals that died (MDAY-D2 [6]): all five died
effectiveness in killing MDAY-D2 cells (MDAY-D2 cells): equally effective

vitamin E
anticancer activity (carcinogenesis): reported to have anticancer activity
